Test results taken from ChEMBL document CHEMBL6092226, “Tilting the Scales toward EGFR Mutant Selectivity: Expanding the Scope of Bivalent "Type V" Kinase Inhibitors” (J Med Chem, 2024).
The source made the active and inactive calls.

Columns and labels:
[1] = target: T1, Dual specificity mitogen-activated protein kinase kinase 7 (Homo sapiens) (UniProt O14733); test: Inhibition of MKK7 (unknown origin) at 1 uM by Eurofins DiscoverX KINOMEscan analysis
T1 sequence (whole entry): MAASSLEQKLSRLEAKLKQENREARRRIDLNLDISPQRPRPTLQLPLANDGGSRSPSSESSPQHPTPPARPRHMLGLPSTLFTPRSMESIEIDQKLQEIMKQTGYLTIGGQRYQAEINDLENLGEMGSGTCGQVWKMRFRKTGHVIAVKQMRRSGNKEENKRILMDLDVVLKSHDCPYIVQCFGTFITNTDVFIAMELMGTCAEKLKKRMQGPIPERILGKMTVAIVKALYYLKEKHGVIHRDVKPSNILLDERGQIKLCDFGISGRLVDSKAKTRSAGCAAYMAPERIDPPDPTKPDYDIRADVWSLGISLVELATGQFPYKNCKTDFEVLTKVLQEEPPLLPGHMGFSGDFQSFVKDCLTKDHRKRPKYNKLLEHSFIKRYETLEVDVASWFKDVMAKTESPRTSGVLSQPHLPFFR

[2] = target: Tyrosine-protein kinase BTK (Homo sapiens) (UniProt Q06187); test: Inhibition of BTK (unknown origin) at 1 uM by Eurofins DiscoverX KINOMEscan analysis
Chain of Tyrosine-protein kinase BTK (Homo sapiens) (Q06187 whole entry): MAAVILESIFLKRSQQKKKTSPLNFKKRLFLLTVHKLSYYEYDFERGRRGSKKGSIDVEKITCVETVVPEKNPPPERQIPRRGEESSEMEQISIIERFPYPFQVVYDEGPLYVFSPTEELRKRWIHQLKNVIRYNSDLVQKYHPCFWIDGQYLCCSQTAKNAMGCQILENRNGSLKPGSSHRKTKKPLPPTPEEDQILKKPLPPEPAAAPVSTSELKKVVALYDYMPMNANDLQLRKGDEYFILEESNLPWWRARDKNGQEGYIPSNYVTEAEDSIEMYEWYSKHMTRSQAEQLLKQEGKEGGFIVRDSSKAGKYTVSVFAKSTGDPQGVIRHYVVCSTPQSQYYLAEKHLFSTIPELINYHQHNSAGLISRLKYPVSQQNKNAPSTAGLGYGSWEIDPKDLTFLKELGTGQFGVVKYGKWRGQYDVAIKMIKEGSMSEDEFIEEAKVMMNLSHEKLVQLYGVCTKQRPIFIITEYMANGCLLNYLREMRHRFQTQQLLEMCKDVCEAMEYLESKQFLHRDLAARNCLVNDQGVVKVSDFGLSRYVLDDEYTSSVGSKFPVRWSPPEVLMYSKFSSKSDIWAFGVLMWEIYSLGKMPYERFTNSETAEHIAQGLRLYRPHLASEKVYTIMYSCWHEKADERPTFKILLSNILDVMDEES

[3] = target: T2, Cytoplasmic tyrosine-protein kinase BMX (Homo sapiens) (UniProt P51813); test: Inhibition of BMX (unknown origin) at 1 uM by Eurofins DiscoverX KINOMEscan analysis
T2 sequence (whole entry): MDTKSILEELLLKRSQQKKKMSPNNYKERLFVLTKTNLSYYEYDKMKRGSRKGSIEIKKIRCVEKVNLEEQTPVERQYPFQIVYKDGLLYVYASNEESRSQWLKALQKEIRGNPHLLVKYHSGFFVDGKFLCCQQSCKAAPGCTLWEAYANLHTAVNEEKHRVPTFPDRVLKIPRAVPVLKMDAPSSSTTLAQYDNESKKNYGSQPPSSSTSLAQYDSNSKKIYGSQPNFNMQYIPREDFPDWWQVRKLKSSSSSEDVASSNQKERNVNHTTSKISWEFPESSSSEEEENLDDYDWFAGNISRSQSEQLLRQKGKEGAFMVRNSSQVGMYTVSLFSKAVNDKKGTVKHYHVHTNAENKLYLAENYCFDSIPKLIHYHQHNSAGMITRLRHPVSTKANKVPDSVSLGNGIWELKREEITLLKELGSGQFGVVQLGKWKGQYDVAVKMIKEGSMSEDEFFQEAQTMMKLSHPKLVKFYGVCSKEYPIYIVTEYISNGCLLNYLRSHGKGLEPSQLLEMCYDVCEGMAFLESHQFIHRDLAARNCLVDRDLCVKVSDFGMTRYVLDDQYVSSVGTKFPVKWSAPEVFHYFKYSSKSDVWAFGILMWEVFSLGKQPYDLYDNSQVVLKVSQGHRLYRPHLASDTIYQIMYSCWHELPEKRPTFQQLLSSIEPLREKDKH

[4] = target: T3, Tyrosine-protein kinase JAK3 (Homo sapiens) (UniProt P52333); test: Inhibition of JAK3 (unknown origin) at 1 uM by Eurofins DiscoverX KINOMEscan analysis
T3 sequence (whole entry): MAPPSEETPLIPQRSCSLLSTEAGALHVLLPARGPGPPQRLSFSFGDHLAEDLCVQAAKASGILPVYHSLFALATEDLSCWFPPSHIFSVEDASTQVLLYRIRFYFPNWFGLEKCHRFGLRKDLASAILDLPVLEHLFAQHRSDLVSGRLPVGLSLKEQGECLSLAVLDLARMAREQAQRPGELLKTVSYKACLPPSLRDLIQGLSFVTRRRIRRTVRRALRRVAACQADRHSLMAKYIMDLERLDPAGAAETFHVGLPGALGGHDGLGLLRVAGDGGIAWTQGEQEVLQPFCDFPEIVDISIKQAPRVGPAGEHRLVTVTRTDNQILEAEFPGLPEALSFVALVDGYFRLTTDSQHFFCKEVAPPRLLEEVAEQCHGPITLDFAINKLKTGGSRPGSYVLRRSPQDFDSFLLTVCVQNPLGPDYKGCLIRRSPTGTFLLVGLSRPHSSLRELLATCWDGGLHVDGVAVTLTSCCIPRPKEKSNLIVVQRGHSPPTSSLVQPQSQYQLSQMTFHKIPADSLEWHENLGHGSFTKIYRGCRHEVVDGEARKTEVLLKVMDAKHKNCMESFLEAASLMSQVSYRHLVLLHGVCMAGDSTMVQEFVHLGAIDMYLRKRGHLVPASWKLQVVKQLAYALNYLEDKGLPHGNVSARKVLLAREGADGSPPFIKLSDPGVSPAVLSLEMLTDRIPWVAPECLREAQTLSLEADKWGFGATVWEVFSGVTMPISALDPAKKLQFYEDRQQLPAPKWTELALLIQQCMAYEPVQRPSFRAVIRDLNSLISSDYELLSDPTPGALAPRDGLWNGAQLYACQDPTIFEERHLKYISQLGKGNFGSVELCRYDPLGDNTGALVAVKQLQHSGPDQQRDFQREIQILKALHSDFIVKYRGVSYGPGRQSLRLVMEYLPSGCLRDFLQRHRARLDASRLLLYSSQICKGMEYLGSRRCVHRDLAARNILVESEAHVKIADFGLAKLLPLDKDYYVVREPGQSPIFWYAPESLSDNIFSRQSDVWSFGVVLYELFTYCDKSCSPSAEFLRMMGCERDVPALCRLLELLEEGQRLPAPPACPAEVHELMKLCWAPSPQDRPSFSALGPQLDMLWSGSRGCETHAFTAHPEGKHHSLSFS

Measured: inhibition

C=CC(=O)Nc1ccc(OC)c(Nc2cc(-c3[nH]c(SC)nc3-c3cccc(NC(=O)c4cccc(O)c4CN4Cc5ccccc5C4=O)c3)ccn2)c1
inactive: [1] | [2] | [3] | [4]
